Patent publication US20260240838A1, “USE OF NITRONE COMPOUNDS OR PHARMACEUTICALLY ACCEPTABLE SALTS THEREOF IN COMBINATION WITH SGLT-2 INHIBITORS” (GUANGZHOU MAGPIE PHARMACEUTICALS CO., LTD., priority 2022, published 2026)

What was measured:
db/db mice [1] = experiment: Blood glucose testing in db/db mice, TBN/TN-2 alone and with Empagliflozin (Example 1); format: in vivo; settings: for blood sugar (in words): in combination with a SGLT-2 inhibitor; for Changes in blood glucose: 6 weeks, compared to Model group
Description: (§1) Db/db mice are type II diabetes mice caused by leptin receptor gene defect located on chromosome 4. They began to drink, eat, urinate and be obese at the age of 4 weeks. With the increase of age, they have obvious characteristics of hyperglycemia, hyperlipidemia and insulin resistance. Their pathogenesis is very similar to that of type II diabetes patients. With the aggravation of diabetes, db/db mice have a series of complications. The main pathological changes of kidney tissue are dilation of glomerular mesangial interstitium, thickening of glomerular basement membrane, excessive accumulation of extracellular matrix, etc. It is a good model to study the early morphological changes of DKD kidney.
(§2) 6-week-old db/db mice were given adaptive feeding for 1 week (i.e. 7 weeks), with TBN and TN-2 administered separately and in combination with Empagliflozin twice a day (fixed at 9:00-10:00 am and 3:00-4:00 pm, with an interval of 6 hours), for a continuous 6 weeks of administration.
During the experiment, blood was collected from the tail vein of mice before the start of administration (7 weeks old) to measure their blood glucose levels; After the completion of administration (at 13 weeks of mouse age, i.e. the end of the experiment), serum was taken and the blood glucose levels of each group of mice were measured using a fully automated biochemical analyzer.

db/db mice [2] = experiment: Detection of 24-hour urinary microalbumin in db/db mice by ELISA kit (Example 1); format: in vivo; settings: for 24-hour urinary microalbumin (in words): in combination with a SGLT-2 inhibitor; for Changes in urinary microalbumin: 24-hour urine, compared to Model group
Description: as §1, §2
Db/db mice were tested for 24-hour urinary microalbumin at 4 and 6 weeks after drug treatment. Each group of mice was placed in a metabolic cage, drinking water freely, and 24-hour urine samples were collected. After centrifugation and precipitation, the levels of microalbuminuria in the 24-hour urine of each group of mice were detected using an ELISA kit.

IL-6 = experiment: Detection of the level of IL-6 in serum of db/db mice by ELISA kit (Example 1); format: in vivo; settings: for content of IL-6 in the serum of model animals (in words): alone or in combination with a SGLT-2 inhibitor (such as Entegliflozin); for Changes in IL-6: 6 weeks, serum of db/db mice, compared to Model group
Description: as §1, §2
(§3) After 6 weeks of administration, the whole blood was left to stand at room temperature for 1 hour. Then, it was transferred to a centrifuge and centrifuged at 3000 rpm for 10 minutes. The upper layer of serum was taken out and placed in an EP tube and stored in a −20° C. freezer for later use. Detection the level of IL-6 and IL-1β in serum of mice in each group using ELISA kit.

db/db mice [3] = experiment: Urinary albumin creatinine ratio in db/db mice; format: in vivo; settings: in combination with a SGLT-2 inhibitor
IL-1β = experiment: Detection of the level of IL-1β in serum of db/db mice by ELISA kit (Example 1); format: in vivo; settings: 6 weeks, compared to Model group
Description: as §1, §2, §3

[4] = FAERS-based analysis, rank order; cited from earlier work
[5] = system: Patients of type II diabetic kidney disease; experiment: Clinical trial of TBN and TBN + SGLT2i: change of UACR relative to baseline (Example 3); format: in vivo, human
Experimental: The present invention adopts a test design of multicenter, randomized, double-blind, placebo-controlled parallel control.
Subjects of the experiments: Patients of type II diabetic kidney disease were taken as the subjects in the experiments (all signed the informed consent form). In at least 2 of the 3 morning urine in the screening period, the urinary microalbumin/creatinine ratio (UACR) is of ≥30 mg/g and <300 mg/g.
The medication schedule: Administration of 180 consecutive days. In this example, SGLT2i is commercially available SGLT2i, selected from Engliflozin, Dapagliflozin, and Cargliflozin: Engliflozin once daily, 10 mg; Dapagliflozin once daily, 10 mg; Kagliflozin once daily, 100 mg. In the three subjects in the 300 mg TBN+SGLT2i group, one subject took Engliflozin and two subjects took Dapagliflozin; in the three subjects in the 600 mg TBN+SGLT2i group, all took Dapagliflozin; in the […] in the 1200 mg TBN+SGLT2i group, two subjects took Canagliflozin, one subject took Entegliflozin, and one subject took Dapagliflozin; in the SGLT2i group, one subject took Dapagliflozin.

[6] = Empagliflozin 2.5 mg/kg twice/day i.g.
[7] = Empagliflozin 5 mg/kg twice/day i.g.

Cc1nc(/C=[N+](\[O-])C(C)(C)C)c(C)nc1/C=[N+](\[O-])C(C)(C)C [TN-2]
blood sugar (in words) (db/db mice [1]): synergistically lower | 24-hour urinary microalbumin (in words) (db/db mice [2]): reduce | content of IL-6 in the serum of model animals (in words) (IL-6): significantly reduce | urinary albumin creatinine ratio (in words) (db/db mice [3]): reduce

OC[C@H]1O[C@@H](c2ccc(Cl)c(Cc3ccc(O[C@H]4CCOC4)cc3)c2)[C@H](O)[C@@H](O)[C@@H]1O [Empagliflozin, reference compound]
Changes in blood glucose (db/db mice [1]; [6]): −38.03% | Changes in blood glucose (db/db mice [1]; [7]): −44.33% | Changes in urinary microalbumin (db/db mice [2]; [6]): −4.18% | Changes in urinary microalbumin (db/db mice [2]; [7]): −18.62% | Changes in IL-6 (IL-6; [6]): −8.55% | Changes in IL-6 (IL-6; [7]): −75.05% | Changes in IL-1β (IL-1β; [6]): −2.36% | Changes in IL-1β (IL-1β; [7]): −16.32% | signal intensity comparison of urinary tract infections [4]: dapagliflozin>canagliflozin>empagliflozin

Cc1nc(C)c(/C=[N+](\[O-])C(C)(C)C)nc1C [TBN, tetramethylpyrazine nitrone]
Changes in blood glucose (db/db mice [1]; TBN 10 mg/kg twice/day i.g.): −0.80% | Changes in blood glucose (db/db mice [1]; TBN 30 mg/kg twice/day i.g.): −17.13% | blood sugar (in words) (db/db mice [1]): synergistically lower | Changes in urinary microalbumin (db/db mice [2]; TBN 10 mg/kg twice/day i.g.): −0.61% | Changes in urinary microalbumin (db/db mice [2]; TBN 30 mg/kg twice/day i.g.): −23.09% | 24-hour urinary microalbumin (in words) (db/db mice [2]): reduce | Changes in IL-6 (IL-6; TBN 10 mg/kg twice/day i.g.): −36.43% | Changes in IL-6 (IL-6; TBN 30 mg/kg twice/day i.g.): −58.34% | content of IL-6 in the serum of model animals (in words) (IL-6): significantly reduce | Changes in IL-1β (IL-1β; TBN 10 mg/kg twice/day i.g.): −5.88% | Changes in IL-1β (IL-1β; TBN 30 mg/kg twice/day i.g.): 0.20% | Percentage of changes in UACR relative baseline, Day 90 LS Mean ([5]; TBN 300 mg twice/day po, n = 18, Day 90): −1.48% | Percentage of changes in UACR relative baseline, Day 90 LS Mean ([5]; TBN 600 mg twice/day po, n = 19, Day 90): −43.32% | Percentage of changes in UACR relative baseline, Day 90 LS Mean ([5]; TBN 1200 mg twice/day po, n = 14, Day 90): −37.08% | urinary albumin creatinine ratio (in words) (db/db mice [3]): reduce

CCOc1ccc(Cc2cc([C@@H]3O[C@H](CO)[C@@H](O)[C@H](O)[C@H]3O)ccc2Cl)cc1 [Dapagliflozin]
signal intensity comparison of urinary tract infections [4]: dapagliflozin>canagliflozin>empagliflozin
